Measured values from patent US20040033273A1, “Withasol and methods of use” (AyurCore, Inc., priority 2001, published 2004).
Where two headings read alike, the source gives them in different places.

How the values were obtained:
[1] = tested on: BALB/c mouse implanted with ascitic sarcoma, CP treated; details: for Hb / Platelet Count (×10^3mcl) / RBC Count (×10^6/mcl) / WBC Difference Count (%) Lymphocytes / WBC Difference Count (%) Polymorph / WBC Total Count (×10^3/mcl) / CF Titre (Log2) / HA Titre (Log2) / Difference in Weight (g) from Day 1 to 16: mean +/- SD
Description: This example describes dosing studies of WITHASOL in cyclophosphamide (CP) treated antigenically challenged BALB/c mouse animals implanted with ascitic sarcoma.
Following the established protocol, tumor was implanted on day 0. Test drugs as suspensions in 2.0% sterile CMC (vehicle) were prepared by Bio-Ved Laboratories. Antigenically sensitized (day 1) and challenged (day 10) mice, received test substances from day 1 to day 15 per oral route. Animals received appropriate vehicle (2.0% CMC) or CP (150 mg/kg) i.p. on day 11 and blood was collected on day 16. Body weights and gross observations were monitored during treatment.
Four doses, 400 mg/kg, 200 mg/kg, 100 mg/kg and 50 mg/kg of WITHASOL coded as R-1, R-2, R-3 and R-4, respectively, were used for this study. Decoding was done after the study was completed.
Data analysis was carried out using ANOVA single factor @<0.05 for comparison of the groups.

[2] = tested on: BALB/c mouse with ascitic sarcoma (S-180)
From the text: A study was then undertaken to determine the kinetics of cyclophosphamide treatment with respect to myelosuppression and immunosuppression. This step four aspect of the protocol establishes a time response curve for cyclophosphamide and determines optimal time for collection of blood samples and evaluation of hematological and serological parameters under the aforementioned conditions.
Mice were antigenically challenged with 0.5 cc of RBC suspension (1.0×10^8 cells/cc), intraperitoneally on day 1 as previously described. Mice from all groups were sensitized with RBC and a challenge dose was given on day 10.
Antibody titres were estimated using 96 well, U-bottom microtiter plates, double diluting serum samples and using 10% Human RBC suspension and complement (guinea pig serum).

[3] = tested on: BALB/c mouse implanted with ascitic sarcoma (S-180), CP treated; details: for Hb / Platelet Count (×10^3/mcl) / RBC Count (×10^6/mcl) / WBC Difference Count (%) Lymphocytes / WBC Difference Count (%) Polymorph / WBC Total Count (×10^3/mcl) / CF Titre (Log2) / HA Titre (Log2) / Difference in Weight (g) from Day 1 to 16: mean +/- SD
[4] = tested on: BALB/c mouse with ascitic sarcoma (S-180); details: for survival rate: CP 150 mg/kg ip on day 11, compared with the other dose regimens
[5] = Tumor +, CP +: CP 150 mg/kg ip day 11, WITHASOL po day 1-15 at 400 (R-1), 200 (R-2), 100 (R-3), 50 (R-4) mg/kg or vehicle (CP alone), blood day 16
[6] = Tumor +, CP +: CP 150 mg/kg ip day 11, WITHASOL po day 1-15 at 400 (R-1), 200 (R-2), 100 (R-3), 50 (R-4) mg/kg or vehicle (CP alone), day 16
[7] = Tumor −, CP +, vehicle: CP 150 mg/kg ip day 11, blood day 16
[8] = Tumor −, CP +, vehicle: CP 150 mg/kg ip day 11, day 16
[9] = Tumor −, CP +, vehicle: CP 150 mg/kg ip day 11
[10] = groups I and II: CP 150 mg/kg ip day 11 in tumor-free animals, day 16
[11] = groups III and IV: CP 150 mg/kg ip day 11 in tumor-bearing animals
[12] = groups III and IV: CP 150 mg/kg ip day 11 in tumor-bearing animals, day 16
[13] = CP 150 mg/Kg ip day 11 vs vehicle, days 13, 15, 17, 19 and 21
[14] = Tumor +, CP +: CP 150 mg/kg ip day 11, coded drug 100 mg/kg (vehicle for CP alone) po day 1-15, blood day 16
[15] = Tumor +, CP +: CP 150 mg/kg ip day 11, coded drug 100 mg/kg (vehicle for CP alone) po day 1-15, serum day 16
[16] = Tumor −, CP +, vehicle: CP 150 mg/kg ip day 11, serum day 16
[17] = groups I and II: CP 150 mg/kg ip day 11 in tumor free animals, day 16
[18] = groups I and II: CP 3.0 mg/kg po days 4 to 19 vs vehicle, blood day 20
[19] = groups III and IV: CP 100 mg/kg ip days 7, 9, 11 vs vehicle, blood day 20
[20] = groups V and VI: CP 150 mg/kg ip day 11 vs vehicle, blood day 20

O=P1(N(CCCl)CCCl)NCCCO1 (stereo not shown) [CP, cyclophosphamide]
Survival on Day 16 (Day of Bleeding): No. of Animals Survived ([1]; Tumor +, CP + groups: CP 150 mg/kg ip day 11, WITHASOL po day 1-15 at 400 (R-1), 200 (R-2), 100 (R-3), 50 (R-4) mg/kg or vehicle (CP alone)): 8 | Hb [1, 5]: 12.8 ± 1.03 g/dL | Platelet Count (×10^3mcl) [1, 5]: 906.0 +/− 312.76 ×10^3mcl | RBC Count (×10^6/mcl) [1, 5]: 3.79 +/− 0.46 ×10^6/mcl | WBC Difference Count (%) Lymphocytes [1, 5]: 4.19 +/− 8.70% | WBC Difference Count (%) Polymorph [1, 5]: 58.1 +/− 8.70% | WBC Total Count (×10^3/mcl) [1, 5]: 6.2 +/− 2.17 ×10^3/mcl | CF Titre (Log2) [1, 6]: 3.5 +/− 0.53 Log2 | HA Titre (Log2) [1, 6]: 3.3 +/− 0.89 Log2 | Difference in Weight (g) from Day 1 to 16 ([1]; Tumor +, CP +: CP 150 mg/kg ip day 11, WITHASOL po day 1-15 at 400 (R-1), 200 (R-2), 100 (R-3), 50 (R-4) mg/kg or vehicle (CP alone)): 4.9 ± 2.36 g | Survival on Day 16 (Day of Bleeding): No. of Animals Survived ([1]; Tumor −, CP +, vehicle (group II)): 10 | Hb [1, 7]: 12.9 ± 1.40 g/dL | Platelet Count (×10^3mcl) [1, 7]: 1170.2 +/− 152.33 ×10^3mcl | RBC Count (×10^6/mcl) [1, 7]: 4.04 +/− 0.54 ×10^6/mcl | WBC Difference Count (%) Lymphocytes [1, 7]: 76.7 +/− 4.35% | WBC Difference Count (%) Polymorph [1, 7]: 23.3 +/− 4.35% | WBC Total Count (×10^3/mcl) [1, 7]: 3.6 +/− 0.67 ×10^3/mcl | CF Titre (Log2) [1, 8]: 4.0 +/− 0.82 Log2 | HA Titre (Log2) [1, 8]: 4.4 +/− 0.52 Log2 | Difference in Weight (g) from Day 1 to 16 [1, 9]: 0.4 ± 0.52 g | change in body weights ([1]; groups I and II: CP 150 mg/kg ip day 11 in tumor-free animals): decreased | change in HA antibody titres [1, 10]: decreased | change in HL antibody titres [1, 10]: decreased | change in hemoglobin content [1, 10]: decreased | change in platelet counts [1, 10]: increased | change in red cell counts [1, 10]: decreased | change in white cell differential counts [1, 10]: no significant change | change in white cell total counts [1, 10]: decreased | change in body weights [1, 11]: decreased | change in HA antibody titres [1, 12]: decreased | change in HL antibody titres [1, 12]: decreased | change in hemoglobin content [1, 12]: no significant change | change in lymphocyte percentage [1, 12]: increased | change in platelet counts [1, 12]: no significant change | change in polymorph percentage [1, 12]: decrease | change in red cell counts [1, 12]: no significant change | change in white cell total counts [1, 12]: decrease | time of maximum myelosuppressive and immunosuppressive effect ([2]; CP 150 mg/Kg ip day 11, day after tumor implantation): day 15, or in between day 15 and day 17 | change in platelet counts ([2]; CP 150 mg/Kg ip day 11 vs vehicle): unaffected | change in hemagglutinating antibody (HA) titers [2, 13]: decrease | change in hemolytic antibody titers (complement fixing-CF) [2, 13]: decrease | change in white blood cell counts ([2]; CP 150 mg/Kg ip day 11 vs vehicle, on day 13 and on day 15): significantly decreased | change in hemoglobin content ([2]; CP 150 mg/Kg ip day 11 vs vehicle, on day 17): significant decrease | change in red blood cell counts ([2]; CP 150 mg/Kg ip day 11 vs vehicle, on day 19 (P<0.09)): increased | tumor relapse ([2]; after a few days of cyclophosphamide treatment (150 mg/Kg ip day 11), animals died from tumor regrowth): Tumor relapse was observed | tumor regression ([2]; single cyclophosphamide dose of 150 mg/Kg ip on day 11): regression of tumor | Hb [3, 14]: 11.07 ± 3.812 g/dL | Platelet Count (×10^3/mcl) [3, 14]: 614.17 +/− 287.466 ×10^3/mcl | RBC Count (×10^6/mcl) [3, 14]: 3.54 +/− 1.332 ×10^6/mcl | WBC Difference Count (%) Lymphocytes [3, 14]: 58.18 +/− 8.634% | WBC Difference Count (%) Polymorph [3, 14]: 41.42 +/− 8.634% | WBC Total Count (×10^3/mcl) [3, 14]: 4.53 +/− 0.797 ×10^3/mcl | CF Titre (Log2) [3, 15]: 1.83 +/− 0.408 Log2 | HA Titre (Log2) [3, 15]: 2.17 +/− 0.837 Log2 | Difference in Weight (g) from Day 1 to 16 ([3]; Tumor +, CP +: S-180 bearing antigen-challenged mice, CP 150 mg/kg ip day 11, coded drug 100 mg/kg (vehicle for CP alone) po day 1-15): -0.83 ± 2.563 g | Hb [3, 7]: 13.8 ± 1.103 g/dL | Platelet Count (×10^3/mcl) [3, 7]: 966.33 +/− 324.879 ×10^3/mcl | RBC Count (×10^6/mcl) [3, 7]: 4.37 +/− 0.718 ×10^6/mcl | WBC Difference Count (%) Lymphocytes [3, 7]: 63.73 +/− 2.7897% | WBC Difference Count (%) Polymorph [3, 7]: 36.2 +/− 2.7897% | WBC Total Count (×10^3/mcl) [3, 7]: 3.8 +/− 1.226 ×10^3/mcl | CF Titre (Log2) [3, 16]: 1.00 Log2 | HA Titre (Log2) [3, 16]: 1.5 +/− 5.48 Log2 | Difference in Weight (g) from Day 1 to 16 [3, 9]: -0.5 ± 0.837 g | change in body weights ([3]; groups I and II: CP 150 mg/kg ip day 11 in tumor free animals): decrease | change in HA antibody titers [3, 17]: decreased | change in HL antibody titers [3, 17]: decreased | change in hemoglobin content [3, 17]: No significant change | change in lymphocyte percent [3, 17]: decreased | change in platelet counts [3, 17]: No significant change | change in polymorph percent [3, 17]: Increased | change in red cell counts [3, 17]: lowered | change in white cell total counts [3, 17]: lowered | change in body weight [3, 11]: decreased | change in HA antibody titers [3, 12]: decreased | change in HL antibody titers [3, 12]: decreased | change in hemoglobin content [3, 12]: No significant change | change in lymphocyte percentage [3, 12]: increase | change in platelet counts [3, 12]: Decreased | change in polymorph percentage [3, 12]: Decreased | change in red cell counts [3, 12]: No significant change | change in white counts [3, 12]: Decreased | survival rate [4]: maximum survival rate | survival rate ([4]; listed as cyclophosphamide): greatest survival rate | change in weight of animals ([4]; all three CP doses (3.0 mg/kg po days 4-19; 100 mg/kg ip days 7, 9, 11; 150 mg/kg ip day 11) vs vehicle, t test): significant decrease | change in hemoglobin content [4, 18]: no significant change | change in lymphocytes [4, 18]: no significant change | change in monocyte counts [4, 18]: significantly increased | change in neutrophil counts [4, 18]: significantly lowered | change in platelet counts [4, 18]: no significant change | change in red cell counts [4, 18]: no significant change | change in total white cell counts [4, 18]: significantly lowered | change in hemoglobin content [4, 19]: no significant change | change in platelet counts [4, 19]: no significant change | change in red cell counts [4, 19]: no significant change | change in white cell differential counts [4, 19]: no significant change | change in white cell total counts [4, 19]: no significant change | change in hemoglobin content [4, 20]: no significant change | change in monocytes [4, 20]: no significant change | change in neutrophils [4, 20]: significant increase | change in platelet counts [4, 20]: no significant change | change in red cell counts [4, 20]: no significant change | change in white cell counts [4, 20]: significant increase
